Assay results published in patent US20160032005A1, “METHODS AND PHARMACEUTICALS COMPOSITIONS FOR TREATING BREAST CANCERS” (INSERM (Institut National de la Sante et de la Recherche …, priority 2014, published 2016).

How the values were obtained:
Vangl2 = Vangl2 protein level (western blot) and cellular distribution under autophagy modulators; type: cell-based
Source text: (§1) We next addressed the potential colocalization of Vangl2 and p62 in SUM149 cells by immunofluorescence and confocal analysis. In these cells, Vangl2 and p62 have a punctate cytoplasmic pattern and colocalization between the two proteins was seen puncta in the perinuclear region. Specificity of the Vangl2 signal is attested by lack of staining in cells treated with shVangl2. p62 is present in autophagosomes where it accumulates ubiquitinylated proteins bound to its UBA domain for autophagic degradation. Autophagy is active when the fusion between autophagosomes and lysosomes occur leading to the formation of autophagolysosomes endowed with degradative properties. The fusion process, and therefore autophagy, can be inhibited by Bafilomycin A1, an inhibitor of the vacuolar ATPase that blocks the fusion process by blocking the membrane-bound lysosomal vacuolar ATPase (V-ATPase) to prevent the lysosomal lumen acidification responsible for cathepsin activation. Alternatively, autophagy can be induced by rapamycin, an inhibitor of mTOR [38]. […] Decrease of p62 protein level can also be monitored by western blot. Vangl2 protein levels remained unmodified by rapamycin treatment while another prominent feature of autophagy, i.e. degradation of p62 was readily seen. […]

p62 = p62 immunolocalization and protein level under autophagy modulators; type: cell-based; settings: breast cancer and Hela cells
Source text: as §1

Vangl2-p62 interaction [1] = target: T1, Vangl2-p62 interaction (Homo sapiens, UniProt Q9ULK5); assay: Co-immunoprecipitation in SUM149 cells expressing the construct; type: cell-based; settings: construct expressed in SUM149 cells, compared to GFP alone
T1 construct: endogenous in cells; host or cells: SUM149 cells / cell extracts
T1 sequence (Q9ULK5 1-521): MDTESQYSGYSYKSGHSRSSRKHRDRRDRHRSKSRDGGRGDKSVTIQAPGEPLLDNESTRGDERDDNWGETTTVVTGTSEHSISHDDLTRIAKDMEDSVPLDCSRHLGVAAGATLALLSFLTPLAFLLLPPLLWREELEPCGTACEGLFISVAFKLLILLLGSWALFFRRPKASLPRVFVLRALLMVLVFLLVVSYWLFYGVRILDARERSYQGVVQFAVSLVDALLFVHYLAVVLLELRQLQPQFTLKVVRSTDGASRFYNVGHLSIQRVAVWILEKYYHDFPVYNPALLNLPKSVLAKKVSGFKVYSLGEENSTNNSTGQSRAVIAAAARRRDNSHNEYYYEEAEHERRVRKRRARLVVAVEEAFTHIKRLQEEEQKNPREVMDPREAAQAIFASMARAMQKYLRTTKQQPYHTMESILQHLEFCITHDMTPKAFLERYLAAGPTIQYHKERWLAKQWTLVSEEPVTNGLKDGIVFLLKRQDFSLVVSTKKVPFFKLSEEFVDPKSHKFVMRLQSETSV
Source text: (§2) As JNK signaling is usually activated following PCP activation, we next investigated this pathway in SUM149 cells. As previously shown, down-regulation of Vangl2 leads to a decrease in JNK signaling as shown using a time-dependent FCS stimulation of SUM149 transfected with shVangl2 compared to shLuc. No change in phosphorylation of GSK3 was evidenced in the absence of Vangl2. […] Knock-down of p62 expression in SUM149 cells phenocopied lack of Vangl2 expression. […] Next, we fused the p62 (346-388) sequence to GFP and expressed the construct in SUM149 cells. […] Indeed, this construct was able to specifically coimmunoprecipitate with Vangl2 and furthermore compete with the endogenous Vangl2-p62 interaction as shown by the decreased amount of endogenous p62 associated with Vangl2. In order to assess the contribution of the Vangl2-p62 interaction in JNK signaling, we utilized the dominant negative region of p62 and expressed this as a GFP-tagged protein.

JNK signaling = JNK signaling in SUM149 cells; type: cell-based; settings: compared to GFP alone or shLuc
Source text: as §2

SUM149 cells [2] = assay: Cell migration assay (Boyden chamber, serum as chemo-attractant); type: cell-based; settings: compared to Venus ctrl or shLuc
SUM149 cells [3] = assay: Long-term cell proliferation and anchorage-independent soft agar assays; type: cell-based; settings: compared to Venus ctrl or shLuc
Source text: In order to challenge the role of Vangl2 in tumor growth, we first designed different short hairpin RNA (shRNA) to downregulate Vangl2 protein expression in SUM149, a basal breast cancer cell line, which were targeted to different sequences of the VANGL2 gene. Vangl2 expression is decreased by approximately 90% with shVangl2 (clone 3.6.9 and 3.2.12) compared shLuc controls. […] Behaviour of shLuc-SUM149 and shVangl2-SUM149 cells was next compared in long-term cell proliferation and anchorage-independent experiments using soft agar assays. Cell proliferation and in vitro tumorigenicity of SUM149 cells were decreased when expression of Vangl2 was decreased using shVangl2 clone 3.6.9. This effect was confirmed using a second shVangl2 clone 3.2.12. The tumorigenic potential of Vangl2 was next assessed in vivo by performing subcutaneous xenografts in NOG mice. Orthotopic injections of shLuc-SUM149 and shVangl2-SUM149 cells were performed and tumour growth was periodically measured.
As JNK signaling is usually activated following PCP activation, we next investigated this pathway in SUM149 cells. As previously shown, down-regulation of Vangl2 leads to a decrease in JNK signaling as shown using a time-dependent FCS stimulation of SUM149 transfected with shVangl2 compared to shLuc. No change in phosphorylation of GSK3 was evidenced in the absence of Vangl2. […]

Vangl2-p62 interaction [4] = target: T1, Vangl2-p62 interaction; assay: Competition of endogenous Vangl2-p62 interaction recovered by immunoprecipitation, peptide incubated in SUM149 cell extracts; type: binding; settings: SUM149 cells / cell extracts

CO/C1=C\C(C)=C\[C@@H](C)[C@@H](O)[C@@H](C)C/C(C)=C/C=C/[C@H](OC)[C@@H]([C@@H](C)[C@@H](O)[C@H](C)[C@@]2(O)C[C@@H](O)[C@H](C)[C@@H](C(C)C)O2)OC1=O [Bafilomycin A1] was tested, and the Vangl2 protein levels (Vangl2) was “not modified” and the p62 immunolocalization (p62) was “accumulates”.
With “GFP-p62 (346-388): p62 (346-388) sequence fused to GFP, expressed in SUM149 cells” the “effect on endogenous Vangl2-p62 interaction in co-immunoprecipitation” value (Vangl2-p62 interaction [1]) was “dominant-negative effect” and the JNK signalling (JNK signaling) was “decrease”.
For “Venus-p62 (346-388): Venus-tagged p62 (346-388) expressed by lentiviral infection”, the cell migration (SUM149 cells [2]) was “decrease” and the “colonies in soft agar / in vitro tumorigenicity” value (SUM149 cells [3]) was “fewer colonies”.
For “polypeptide (346-371): polypeptide reduced in size, residues 346-371 of p62 (SEQ ID NO:2) (VDPSTGELQSLQMPESEGPSSLDPSQ; listed as Homo sapiens)”, the “disruption of the endogenous Vangl2-p62 interaction” value (Vangl2-p62 interaction [4]) was “able to inhibit”.
